Assay results: patent US9890124B2, “Benzazepine sulfonamide compounds” (Hoffmann-La Roche Inc., priority 2015, dated 2018)

How the values were obtained:
human TLR8 = human TLR8 (Homo sapiens (Human), UniProt Q9NR97); test: HEK-Blue human TLR8 cells NF-κB SEAP reporter assay; assay type: cell-based; settings: stimulation for 20 hours
From the text: (§1) For TLR8 and TLR7 activity testing, HEK-Blue human TLR8 or TLR7 cells (Invivogen, San Diego, Calif., USA) are used, respectively. These cells are designed for studying the stimulation of human TLR8 or TLR7 by monitoring the activation of NF-κB. A SEAP (secreted embryonic alkaline phosphatase) reporter gene is placed under the control of the IFN-b minimal promoter fused to five NF-κB and AP-1-binding sites. Therefore the reporter expression is regulated by the NF-κB promoter upon stimulation of human TLR8 or TLR7 for 20 hours. The cell culture supernatant SEAP reporter activity was determined using Quanti Blue kit (Invivogen, San Diego, Calif., USA) at a wavelength of 640 nm, a detection medium that turns purple/blue in the presence of alkaline phosphatase. EC50 values were determined using Activity Base analysis (ID Business Solution, Limited).

human TLR7 = human TLR7 (Homo sapiens (Human), UniProt Q9NYK1); test: HEK-Blue human TLR7 cells NF-κB SEAP reporter assay; assay type: cell-based; settings: stimulation for 20 hours
Sequence of human TLR7 (Q9NYK1 27-1049): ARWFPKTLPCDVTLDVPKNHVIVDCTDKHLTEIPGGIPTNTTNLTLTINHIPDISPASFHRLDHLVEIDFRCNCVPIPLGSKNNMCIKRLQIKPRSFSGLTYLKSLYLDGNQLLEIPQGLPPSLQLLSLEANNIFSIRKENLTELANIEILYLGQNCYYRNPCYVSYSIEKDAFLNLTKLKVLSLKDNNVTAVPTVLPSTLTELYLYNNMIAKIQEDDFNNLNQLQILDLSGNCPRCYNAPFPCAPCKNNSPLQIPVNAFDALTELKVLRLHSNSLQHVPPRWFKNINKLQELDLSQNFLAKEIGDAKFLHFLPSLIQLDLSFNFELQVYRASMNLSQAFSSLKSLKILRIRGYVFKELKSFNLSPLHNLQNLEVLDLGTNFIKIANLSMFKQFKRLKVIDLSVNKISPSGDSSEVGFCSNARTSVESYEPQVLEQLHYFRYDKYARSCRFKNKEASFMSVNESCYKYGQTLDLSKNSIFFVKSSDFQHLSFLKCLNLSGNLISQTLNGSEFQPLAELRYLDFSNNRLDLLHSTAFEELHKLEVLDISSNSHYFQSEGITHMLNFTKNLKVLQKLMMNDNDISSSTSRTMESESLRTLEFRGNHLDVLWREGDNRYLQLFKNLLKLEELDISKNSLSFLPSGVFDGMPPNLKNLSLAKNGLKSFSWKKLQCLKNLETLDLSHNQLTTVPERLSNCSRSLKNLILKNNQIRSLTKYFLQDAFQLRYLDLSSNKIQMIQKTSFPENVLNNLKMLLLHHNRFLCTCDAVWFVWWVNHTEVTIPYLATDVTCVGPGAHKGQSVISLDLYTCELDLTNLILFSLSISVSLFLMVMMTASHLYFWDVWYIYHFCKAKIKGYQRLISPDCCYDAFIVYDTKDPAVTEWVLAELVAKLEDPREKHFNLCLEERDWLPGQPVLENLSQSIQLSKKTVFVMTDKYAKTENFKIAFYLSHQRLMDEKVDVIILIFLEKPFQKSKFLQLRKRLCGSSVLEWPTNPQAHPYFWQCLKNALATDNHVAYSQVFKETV
From the text: as §1

Sequence of human TLR8 (Q9NR97 27-1041): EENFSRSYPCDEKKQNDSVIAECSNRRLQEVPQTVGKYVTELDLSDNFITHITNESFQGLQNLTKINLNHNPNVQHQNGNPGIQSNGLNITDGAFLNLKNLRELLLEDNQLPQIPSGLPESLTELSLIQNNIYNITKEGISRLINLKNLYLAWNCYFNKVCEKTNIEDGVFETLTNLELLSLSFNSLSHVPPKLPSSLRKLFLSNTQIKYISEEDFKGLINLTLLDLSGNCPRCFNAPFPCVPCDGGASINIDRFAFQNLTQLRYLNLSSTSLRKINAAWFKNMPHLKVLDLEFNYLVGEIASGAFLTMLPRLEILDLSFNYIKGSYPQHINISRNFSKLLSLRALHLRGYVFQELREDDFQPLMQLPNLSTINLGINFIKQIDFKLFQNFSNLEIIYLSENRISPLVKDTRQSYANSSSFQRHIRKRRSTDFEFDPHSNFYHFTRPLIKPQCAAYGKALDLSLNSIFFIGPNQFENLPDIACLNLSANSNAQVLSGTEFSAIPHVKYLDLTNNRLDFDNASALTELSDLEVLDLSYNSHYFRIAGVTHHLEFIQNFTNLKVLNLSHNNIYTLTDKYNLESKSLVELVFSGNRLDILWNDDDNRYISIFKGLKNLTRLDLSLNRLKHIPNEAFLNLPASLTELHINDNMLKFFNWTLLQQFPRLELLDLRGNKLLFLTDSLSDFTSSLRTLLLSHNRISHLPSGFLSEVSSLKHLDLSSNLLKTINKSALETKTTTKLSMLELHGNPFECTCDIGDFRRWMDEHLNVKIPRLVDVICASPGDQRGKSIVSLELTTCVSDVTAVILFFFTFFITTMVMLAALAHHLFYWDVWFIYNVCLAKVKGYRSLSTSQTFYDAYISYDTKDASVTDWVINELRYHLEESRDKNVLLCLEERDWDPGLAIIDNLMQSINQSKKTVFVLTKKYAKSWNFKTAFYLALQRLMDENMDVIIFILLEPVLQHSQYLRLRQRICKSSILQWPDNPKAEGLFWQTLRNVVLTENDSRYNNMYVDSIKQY

SMILES	EC50 (human TLR8) [nM]	EC50 (human TLR7) [nM]
CCCN(CCC)C(=O)C1=Cc2ccc(-c3cccc(S(=O)(=O)N4CC[C@@H](O)C4)c3C)cc2N=C(N)C1 [Example 19, 2-Amino-8-[3-[(3R)-3-hydroxypyrrolidin-1-yl]sulfonyl-2-methyl-phenyl]-N,N-dipropyl-3H-1-benzazepine-4-carboxamide]	9	14000
CCCN(CCC)C(=O)C1=Cc2ccc(-c3ccc(OC)c(S(=O)(=O)N4CC[C@@H](O)C4)c3)cc2N=C(N)C1 [Example 15, 2-Amino-8-[3-[(3R)-3-hydroxypyrrolidin-1-yl]sulfonyl-4-methoxy-phenyl]-N,N-dipropyl-3H-1-benzazepine-4-carboxamide]	4	17000
CCCN(CCC)C(=O)C1=Cc2ccc(-c3cccc(S(=O)(=O)N4CC(O)C4)c3)cc2N=C(N)C1 [Example 9, 2-Amino-8-[3-(3-hydroxyazetidin-1-yl)sulfonylphenyl]-N,N-dipropyl-3H-1-benzazepine-4-carboxamide]	5	17000
CCCN(CCC)C(=O)C1=Cc2ccc(-c3cccc(S(=O)(=O)NCCO)c3)cc2N=C(N)C1 [Example 2, 2-Amino-8-[3-(2-hydroxyethylsulfamoyl)phenyl]-N,N-dipropyl-3H-1-benzazepine-4-carboxamide]	6	7000
CCCN(CCC)C(=O)C1=Cc2ccc(-c3cccc(S(=O)(=O)N4CCCC4)c3)cc2N=C(N)C1 [Example 3, 2-amino-N,N-dipropyl-8-(3-pyrrolidin-1-ylsulfonylphenyl)-3H-1-benzazepine-4-carboxamide]	6	> 100000
CCCN(CCC)C(=O)C1=Cc2ccc(-c3cncc(S(=O)(=O)N4CCNCC4)c3)cc2N=C(N)C1 [Example 20, 2-Amino-8-(5-piperazin-1-ylsulfonyl-3-pyridyl)-N,N-dipropyl-3H-1-benzazepine-4-carboxamide]	17	5000
CCCN(CCC)C(=O)C1=Cc2ccc(-c3cccc(S(=O)(=O)N4CC(CO)C4)c3)cc2N=C(N)C1 [Example 16, 2-Amino-8-[3-[3-(hydroxymethyl)azetidin-1-yl]sulfonylphenyl]-N,N-dipropyl-3H-1-benzazepine-4-carboxamide]	2	26000
CCCN(CCC)C(=O)C1=Cc2ccc(-c3cccc(S(=O)(=O)N4CCC(O)CC4)c3)cc2N=C(N)C1 [Example 13, 2-Amino-8-[3-[(4-hydroxy-1-piperidyl)sulfonyl]phenyl]-N,N-dipropyl-3H-1-benzazepine-4-carboxamide]	4	17000
CCCN(CCC)C(=O)C1=Cc2ccc(-c3cccc(S(=O)(=O)N4CCNCC4)c3)cc2N=C(N)C1 [Example 21, 2-Amino-8-(3-piperazin-1-ylsulfonylphenyl)-N,N-dipropyl-3H-1-benzazepine-4-carboxamide]	18	> 100000
CCCN(CCC)C(=O)C1=Cc2ccc(-c3cccc(S(=O)(=O)N(C)CCO)c3)cc2N=C(N)C1 [Example 10, 2-Amino-8-[3-[2-hydroxyethyl(methyl)sulfamoyl]phenyl]-N,N-dipropyl-3H-1-benzazepine-4-carboxamide]	4	20000
CCCN(CCC)C(=O)C1=Cc2ccc(-c3cccc(S(N)(=O)=O)c3)cc2N=C(N)C1 [Example 1, 2-Amino-N,N-dipropyl-8-(3-sulfamoylphenyl)-3H-1-benzazepine-4-carboxamide]	6	3000
CCCN(CCC)C(=O)C1=Cc2ccc(-c3cccc(S(=O)(=O)NCCOCCO)c3)cc2N=C(N)C1 [Example 11, 2-Amino-8-[3-[2-(2-hydroxyethoxy)ethylsulfamoyl]phenyl]-N,N-dipropyl-3H-1-benzazepine-4-carboxamide]	8	12000
CCCN(CCC)C(=O)C1=Cc2ccc(-c3cncc(S(N)(=O)=O)c3)cc2N=C(N)C1 [Example 4, 2-Amino-N,N-dipropyl-8-(5-sulfamoyl-3-pyridyl)-3H-1-benzazepine-4-carboxamide]	23	5000
CCCN(CCC)C(=O)C1=Cc2ccc(-c3cccc(S(=O)(=O)N4CCC(O)C4)c3)cc2N=C(N)C1 (stereo not shown) [Example 5, 2-Amino-8-[3-(3-hydroxypyrrolidin-1-yl)sulfonylphenyl]-N,N-dipropyl-3H-1-benzazepine-4-carboxamide]	3	103000
CCCN(CCC)C(=O)C1=Cc2ccc(-c3ccc(S(=O)(=O)N4CCC(O)C4)cc3)cc2N=C(N)C1 (stereo not shown) [Example 6, 2-Amino-8-[4-(3-hydroxypyrrolidin-1-yl)sulfonylphenyl]-N,N-dipropyl-3H-1-benzazepine-4-carboxamide]	10	104000
CCCN(CCC)C(=O)C1=Cc2ccc(-c3cc(C)cc(S(=O)(=O)N4CC[C@@H](O)C4)c3)cc2N=C(N)C1 [Example 23, 2-Amino-8-[3-[(3R)-3-hydroxypyrrolidin-1-yl]sulfonyl-5-methyl-phenyl]-N,N-dipropyl-3H-1-benzazepine-4-carboxamide]	6	13000
CCCN(CCC)C(=O)C1=Cc2ccc(-c3cccc(S(=O)(=O)N4CCC[C@@H](O)C4)c3)cc2N=C(N)C1 [Example 17, 2-Amino-8-[3-[[(3R)-3-hydroxy-1-piperidyl]sulfonyl]phenyl]-N,N-dipropyl-3H-1-benzazepine-4-carboxamide]	5	> 100000
CCCN(CCC)C(=O)C1=Cc2ccc(-c3cccc(S(=O)(=O)NCCCCCCO)c3)cc2N=C(N)C1 [Example 12, 2-Amino-8-[3-(6-hydroxyhexylsulfamoyl)phenyl]-N,N-dipropyl-3H-1-benzazepine-4-carboxamide]	8	12000
CCCN(CCC)C(=O)C1=Cc2ccc(-c3cccc(S(=O)(=O)N4CCC[C@H](O)C4)c3)cc2N=C(N)C1 [Example 18, 2-Amino-8-[3-[[(3S)-3-hydroxy-1-piperidyl]sulfonyl]phenyl]-N,N-dipropyl-3H-1-benzazepine-4-carboxamide]	6	> 100000
CCCN(CCC)C(=O)C1=Cc2ccc(-c3cc(C(F)(F)F)cc(S(=O)(=O)N4CC[C@@H](O)C4)c3)cc2N=C(N)C1 [Example 14, 2-Amino-8-[3-[(3R)-3-hydroxypyrrolidin-1-yl]sulfonyl-5-(trifluoromethyl)phenyl]-N,N-dipropyl-3H-1-benzazepine-4-carboxamide]	9	> 100000
CCCN(CCC)C(=O)C1=Cc2ccc(-c3cccc(S(=O)(=O)N4CC[C@H](O)C4)c3)cc2N=C(N)C1 [Example 8, 2-Amino-8-[3-[(3S)-3-hydroxypyrrolidin-1-yl]sulfonylphenyl]-N,N-dipropyl-3H-1-benzazepine-4-carboxamide]	5	24000
CCCN(CCC)C(=O)C1=Cc2ccc(-c3cncc(S(=O)(=O)N4CCC(N)C4)c3)cc2N=C(N)C1 (stereo not shown) [Example 22, 2-Amino-8-[5-(3-aminopyrrolidin-1-yl)sulfonyl-3-pyridyl]-N,N-dipropyl-3H-1-benzazepine-4-carboxamide]	31	17000
CCCN(CCC)C(=O)C1=Cc2ccc(-c3cccc(S(=O)(=O)N4CC[C@@H](O)C4)c3)cc2N=C(N)C1 [Example 7, 2-Amino-8-[3-[(3R)-3-hydroxypyrrolidin-1-yl]sulfonylphenyl]-N,N-dipropyl-3H-1-benzazepine-4-carboxamide]	5	18000
